Literature values, collected in patent publication US20240245685A1, “PHOSPHODIESTERASE-5 INHIBITOR COMBINATIONS, METHODS OF MAKING, AND METHODS OF USE THEREOF” (VK Research Associates Inc, priority 2020, published 2024).
Like-named read-outs stand apart in the source and are kept apart here.

What was measured:
[1] = oral tadalafil therapy
[2] = for median time to maximum concentration (t max): oral administration
[3] = not given; remark: listed apart in the source

In the case of CN1CC(=O)N2[C@H](c3ccc4c(c3)OCO4)c3[nH]c4ccccc4c3C[C@@H]2C1=O [tadalafil], the “duration of delayed onset side effects, e.g. gastritis and back pain” value [1] is given as “up to 3 hours”, the “absorption profile when administered with a high-fat meal” value [2] is given as “not found” and the “Dyspepsia Duration” value (maximum doses) is given as 15.5 h. For the same compound, the “Dyspepsia Mean Duration” value (maximum doses) was 11.2 h, the “Headache Duration” value (maximum doses) was 24.3 h and the “Headache Mean Duration” value (maximum doses) was 17.0 h. For the same compound, the “duration of side effects versus sildenafil” value (patients taking tadalafil versus sildenafil) was “more prolonged”, the “frequency of headache and dyspepsia versus sildenafil” value (tadalafil versus sildenafil) was “more common” and the Dyspepsia incidence ([3]; tadalafil 5 mg) was 4%. The Headache incidence ([3]; tadalafil 5 mg) was 11%, the Dyspepsia incidence ([3]; tadalafil 10 mg) was 8% and the Headache incidence ([3]; tadalafil 10 mg) was 11%. For the same compound, the Dyspepsia incidence ([3]; tadalafil 20 mg) was 10% and the Headache incidence ([3]; tadalafil 20 mg) was 15%.

In the case of CCCc1nn(C)c2c(=O)[nH]c(-c3cc(S(=O)(=O)N4CCN(C)CC4)ccc3OCC)nc12 [sildenafil], the “median time to maximum concentration (t max)” value [2] is listed as 1 h.

For CCCc1nc(C)c2c(=O)[nH]c(-c3cc(S(=O)(=O)N4CCN(CC)CC4)ccc3OCC)nn12 [vardenafil], the “median time to maximum concentration (t max)” value [2] is listed as 1 h.

For COc1ccc(CN=c2[nH]c(N3CCC[C@H]3CO)ncc2C(=O)NCc2ncccn2)cc1Cl [avanafil], the “absorption profile when administered with a high-fat meal” value [2] is given as “not found”.
